Reference: publication PMC5218480 (PLoS ONE, 2017)

Tested on: MV-4-11 cells
Experiment: Gene expression microarray analysis (Affymetrix PrimeView) and GSEA
Format: cell-based, human
Parameters: RFU PODN (11730768_x_at) / Fold change /veh PODN (11730768_x_at) / RFU LINC00158 (11744669_a_at) / Fold change /veh LINC00158 (11744669_a_at) / RFU DUSP10 (11751237_a_at) / Fold change /veh DUSP10 (11751237_a_at) / RFU ID3 (11757404_x_at) / Fold change /veh ID3 (11757404_x_at) / RFU PLEKHG5 (11737974_s_at) / Fold change /veh PLEKHG5 (11737974_s_at) / RFU LRRC4B (11730491_at) / Fold change /veh LRRC4B (11730491_at) / RFU GIMAP4 (11747438_a_at) / Fold change /veh GIMAP4 (11747438_a_at) / RFU KRT8 (11758183_x_at) / Fold change /veh KRT8 (11758183_x_at) / RFU CNN1 (11734310_a_at) / Fold change /veh CNN1 (11734310_a_at) / RFU VPS37D (11726825_at) / Fold change /veh VPS37D (11726825_at) / RFU C10orf10 (11716522_x_at) / Fold change /veh C10orf10 (11716522_x_at) / RFU KIR2DL2 /// KIR2DL4 /// KIR2DL5A /// KIR2DL5B /// KIR2DS1 /// KIR2DS2 /// KIR2DS3 /// KIR2DS4 /// KIR3DL3 /// KIR3DL3 /// KIR3DS1 (11738374_at) / Fold change /veh KIR2DL2 /// KIR2DL4 /// KIR2DL5A /// KIR2DL5B /// KIR2DS1 /// KIR2DS2 /// KIR2DS3 /// KIR2DS4 /// KIR3DL3 /// KIR3DL3 /// KIR3DS1 (11738374_at) / RFU C1QL1 (11718748_at) / Fold change /veh C1QL1 (11718748_at) / RFU TMPRSS4 (11747572_a_at) / Fold change /veh TMPRSS4 (11747572_a_at) / RFU HAMP (11756126_x_at) / Fold change /veh HAMP (11756126_x_at) / RFU RNFT2 (11725882_a_at) / Fold change /veh RNFT2 (11725882_a_at) / RFU NR4A2 (11747474_a_at) / Fold change /veh NR4A2 (11747474_a_at) / RFU ABCC12 (11746883_a_at) / Fold change /veh ABCC12 (11746883_a_at) / RFU TMEM136 (11760407_x_at) / Fold change /veh TMEM136 (11760407_x_at) / RFU CLDN22 /// WWC2 (11732394_at) / Fold change /veh CLDN22 /// WWC2 (11732394_at) / RFU HLA-DPB1 (11760878_x_at) / Fold change /veh HLA-DPB1 (11760878_x_at) / RFU SPINT1 (11716480_a_at) / Fold change /veh SPINT1 (11716480_a_at) / RFU GAP43 (11754022_s_at) / Fold change /veh GAP43 (11754022_s_at) / RFU A4GNT (11735810_at) / Fold change /veh A4GNT (11735810_at) / RFU PRB3 (11715151_x_at) / Fold change /veh PRB3 (11715151_x_at) / RFU TUBB4B (11761932_at) / Fold change /veh TUBB4B (11761932_at) / RFU CAPN14 (11732068_a_at) / Fold change /veh CAPN14 (11732068_a_at) / RFU TMCC2 (11721928_a_at) / Fold change /veh TMCC2 (11721928_a_at) / RFU IRGQ (11745062_a_at) / Fold change /veh IRGQ (11745062_a_at) / RFU FAM174B (11720279_a_at) / Fold change /veh FAM174B (11720279_a_at) / RFU TMPRSS4 (11748680_a_at) / Fold change /veh TMPRSS4 (11748680_a_at) / RFU FAM212B (11763350_a_at) / Fold change /veh FAM212B (11763350_a_at) / RFU PLEKHG5 (11743358_a_at) / Fold change /veh PLEKHG5 (11743358_a_at) / RFU ZSCAN30 (11745921_a_at) / Fold change /veh ZSCAN30 (11745921_a_at) / RFU CMKLR1 (11741424_a_at) / Fold change /veh CMKLR1 (11741424_a_at) / RFU LOC101060620 /// MAPK8IP1 (11723275_at) / Fold change /veh LOC101060620 /// MAPK8IP1 (11723275_at) / RFU SPTSSB (11747773_x_at) / Fold change /veh SPTSSB (11747773_x_at) / RFU PRSS12 (11739890_at) / Fold change /veh PRSS12 (11739890_at) / RFU BIN1 (11741810_x_at) / Fold change /veh BIN1 (11741810_x_at) / RFU WNT11 (11732464_a_at) / Fold change /veh WNT11 (11732464_a_at) / RFU C10orf10 (11716521_a_at) / Fold change /veh C10orf10 (11716521_a_at) / RFU C5orf56 (11738089_at) / Fold change /veh C5orf56 (11738089_at) / RFU CYB561 (11721691_x_at) / Fold change /veh CYB561 (11721691_x_at) / RFU ANKRD19P (11752326_a_at) / Fold change /veh ANKRD19P (11752326_a_at) / RFU OR2T12 /// OR2T33 /// OR2T8 (11738714_s_at) / Fold change /veh OR2T12 /// OR2T33 /// OR2T8 (11738714_s_at) / RFU VCAN (11748164_a_at) / Fold change /veh VCAN (11748164_a_at) / RFU JSRP1 (11732532_at) / Fold change /veh JSRP1 (11732532_at) / RFU KRTAP10-11 (11738290_x_at) / Fold change /veh KRTAP10-11 (11738290_x_at) / RFU MYO3A (11730013_a_at) / Fold change /veh MYO3A (11730013_a_at) / RFU EBF3 (11725865_a_at) / Fold change /veh EBF3 (11725865_a_at) / RFU CAMK2N1 (11719241_x_at) / Fold change /veh CAMK2N1 (11719241_x_at) / RFU C5orf56 (11738088_a_at) / Fold change /veh C5orf56 (11738088_a_at) / RFU OLFML3 (11715873_a_at) / Fold change /veh OLFML3 (11715873_a_at) / RFU LOC100653217 /// NTM (11731650_a_at) / Fold change /veh LOC100653217 /// NTM (11731650_a_at) / RFU MAPK11 (11762145_a_at) / Fold change /veh MAPK11 (11762145_a_at) / RFU FIZ1 (11724087_x_at) / Fold change /veh FIZ1 (11724087_x_at) / RFU OASL (11726364_x_at) / Fold change /veh OASL (11726364_x_at) / RFU SOX15 (11748057_x_at) / Fold change /veh SOX15 (11748057_x_at) / RFU CD79A (11719716_a_at) / Fold change /veh CD79A (11719716_a_at) / RFU HIST1H1D (11736915_at) / Fold change /veh HIST1H1D (11736915_at) / RFU CASKIN2 (11723855_a_at) / Fold change /veh CASKIN2 (11723855_a_at) / RFU LOC730098 (11760151_x_at) / Fold change /veh LOC730098 (11760151_x_at) / RFU OR4N2 (11742367_at) / Fold change /veh OR4N2 (11742367_at) / RFU PRRT2 (11749266_a_at) / Fold change /veh PRRT2 (11749266_a_at) / RFU SNX32 (11753110_a_at) / Fold change /veh SNX32 (11753110_a_at) / RFU CDHR5 (11726645_a_at) / Fold change /veh CDHR5 (11726645_a_at) / RFU RCAN1 (11760418_a_at) / Fold change /veh RCAN1 (11760418_a_at) / RFU FAM167A (11723789_a_at) / Fold change /veh FAM167A (11723789_a_at) / RFU FAM26E (11764081_at) / Fold change /veh FAM26E (11764081_at) / RFU ISYNA1 (11749810_s_at) / Fold change /veh ISYNA1 (11749810_s_at) / RFU ACY1 (11761880_at) / Fold change /veh ACY1 (11761880_at) / RFU 11764098_at / Fold change /veh 11764098_at / RFU SAMD14 (11745864_x_at) / Fold change /veh SAMD14 (11745864_x_at) / RFU NPB (11741838_a_at) / Fold change /veh NPB (11741838_a_at) / RFU TMPRSS6 (11731388_a_at) / Fold change /veh TMPRSS6 (11731388_a_at) / RFU KRTAP10-2 (11738614_at) / Fold change /veh KRTAP10-2 (11738614_at) / RFU ARHGAP8 /// PRR5-ARHGAP8 (11727945_x_at) / Fold change /veh ARHGAP8 /// PRR5-ARHGAP8 (11727945_x_at) / RFU KRTAP5-7 /// NADSYN1 (11734609_at) / Fold change /veh KRTAP5-7 /// NADSYN1 (11734609_at) / RFU RASL12 (11751679_a_at) / Fold change /veh RASL12 (11751679_a_at) / RFU CDKN2B (11736163_a_at) / Fold change /veh CDKN2B (11736163_a_at) / RFU PRF1 (11729649_at) / Fold change /veh PRF1 (11729649_at) / RFU, ZNF638 /// ZNF638-IT1 / Fold change vs veh, ZNF638 /// ZNF638-IT1 / RFU, PANK3 / Fold change vs veh, PANK3 / RFU, SH3YL1 / Fold change vs veh, SH3YL1 / RFU, ZEB2 / Fold change vs veh, ZEB2 / RFU, NRIP1 / Fold change vs veh, NRIP1 / RFU, PTTG1IP / Fold change vs veh, PTTG1IP / RFU, CAPN2 / Fold change vs veh, CAPN2 / RFU, MED14 / Fold change vs veh, MED14 / RFU, SNORA58 / Fold change vs veh, SNORA58 / RFU, C1orf63 / Fold change vs veh, C1orf63 / RFU, LRRFIP1 / Fold change vs veh, LRRFIP1 / RFU, NDUFAF7 / Fold change vs veh, NDUFAF7 / RFU, SLC12A2 / Fold change vs veh, SLC12A2 / RFU, IBTK / Fold change vs veh, IBTK / RFU, ESF1 / Fold change vs veh, ESF1 / Fold change vs veh, TMEM50B / RFU, TAOK1 / Fold change vs veh, TAOK1 / RFU, ACBD3 / Fold change vs veh, ACBD3 / RFU, TMA16 / Fold change vs veh, TMA16 / RFU, RWDD3 / Fold change vs veh, RWDD3 / RFU, BCAT1 / Fold change vs veh, BCAT1 / RFU, EDEM3 / Fold change vs veh, EDEM3 / RFU, TMEM33 / Fold change vs veh, TMEM33 / RFU, WDR75 / Fold change vs veh, WDR75 / RFU, AHCTF1 / Fold change vs veh, AHCTF1 / RFU, TFRC / Fold change vs veh, TFRC / RFU, ZDHHC17 / Fold change vs veh, ZDHHC17 / RFU, NOM1 / Fold change vs veh, NOM1 / RFU, ARL8B / Fold change vs veh, ARL8B / RFU, ZBTB11 / Fold change vs veh, ZBTB11 / RFU, TAMM41 / Fold change vs veh, TAMM41 / RFU, KIAA1704 /// LOC100996395 / Fold change vs veh, KIAA1704 /// LOC100996395 / RFU, ING1 / Fold change vs veh, ING1 / RFU, TRMT61B / Fold change vs veh, TRMT61B / RFU, FUBP3 / Fold change vs veh, FUBP3 / RFU, TP53 / Fold change vs veh, TP53 / RFU, TNKS2 / Fold change vs veh, TNKS2 / RFU, ZFP14 / Fold change vs veh, ZFP14 / RFU, ACTR2 / Fold change vs veh, ACTR2 / RFU, PPP3R1 / Fold change vs veh, PPP3R1 / RFU, PIK3R1 / Fold change vs veh, PIK3R1 / RFU, HNRNPA1 / Fold change vs veh, HNRNPA1 / RFU, RNF170 / Fold change vs veh, RNF170 / RFU, ZNF28 / Fold change vs veh, ZNF28 / RFU, RNGTT / Fold change vs veh, RNGTT / RFU, OGT / Fold change vs veh, OGT / RFU, BRD1 / Fold change vs veh, BRD1 / RFU, MARS / Fold change vs veh, MARS / RFU, ZNF655 / Fold change vs veh, ZNF655 / RFU, FAHD1 / Fold change vs veh, FAHD1 / RFU, BDP1 / Fold change vs veh, BDP1 / RFU, LRRCC1 / Fold change vs veh, LRRCC1 / RFU, ARID1A / Fold change vs veh, ARID1A / RFU, ZNF146 / Fold change vs veh, ZNF146 / RFU, ZNF330 / Fold change vs veh, ZNF330 / RFU, GPN3 / Fold change vs veh, GPN3 / RFU, C9orf123 / Fold change vs veh, C9orf123 / RFU, N4BP2L2 / Fold change vs veh, N4BP2L2 / RFU, ARFIP1 / Fold change vs veh, ARFIP1 / RFU, FAM179B / Fold change vs veh, FAM179B / RFU, BCL10 / Fold change vs veh, BCL10 / RFU, UHRF1BP1L / Fold change vs veh, UHRF1BP1L / RFU, BET1 / Fold change vs veh, BET1 / RFU, CNOT2 / Fold change vs veh, CNOT2 / RFU, ZNF268 / Fold change vs veh, ZNF268 / Fold change vs veh, ZNF507 / RFU, DGCR2 / Fold change vs veh, DGCR2 / RFU, WDSUB1 / Fold change vs veh, WDSUB1 / Fold change vs veh, HSP90B1 /// MIR3652 / RFU, ADSS / Fold change vs veh, ADSS / RFU, GK / Fold change vs veh, GK / RFU, ZNF148 / Fold change vs veh, ZNF148 / RFU, TAF9 / Fold change vs veh, TAF9 / RFU, SLC1A5 / Fold change vs veh, SLC1A5 / RFU, SLMO2 / Fold change vs veh, SLMO2 / RFU, ABCC4 / Fold change vs veh, ABCC4 / RFU, LOC101060439 /// RAP1B / Fold change vs veh, LOC101060439 /// RAP1B / RFU, RFX7 / Fold change vs veh, RFX7 / RFU, GTPBP10 / Fold change vs veh, GTPBP10 / RFU, CNEP1R1 / Fold change vs veh, CNEP1R1 / RFU, BIVM-ERCC5 /// ERCC5 / Fold change vs veh, BIVM-ERCC5 /// ERCC5 / RFU, ILF3 / Fold change vs veh, ILF3 / RFU 11762660_at / Fold change /veh 11762660_at / RFU VCAN (11757783_s_at) / Fold change /veh VCAN (11757783_s_at) / RFU DDX43 (11728927_at) / Fold change /veh DDX43 (11728927_at) / RFU KRT8 (11758188_x_at) / Fold change /veh KRT8 (11758188_x_at) / RFU NKD1 (11759106_at) / Fold change /veh NKD1 (11759106_at) / RFU SRD5A1 (11742802_a_at) / Fold change /veh SRD5A1 (11742802_a_at) / RFU TPSAB1 /// TPSB2 (11721975_s_at) / Fold change /veh TPSAB1 /// TPSB2 (11721975_s_at) / RFU GSTM3 (11746129_a_at) / Fold change /veh GSTM3 (11746129_a_at) / RFU IL23R (11737362_x_at) / Fold change /veh IL23R (11737362_x_at) / RFU TMEM51 (11727254_a_at) / Fold change /veh TMEM51 (11727254_a_at) / RFU PIWIL2 (11732686_x_at) / Fold change /veh PIWIL2 (11732686_x_at) / RFU ORM1 (11744905_x_at) / Fold change /veh ORM1 (11744905_x_at) / RFU CCDC152 (11743942_at) / Fold change /veh CCDC152 (11743942_at) / RFU ECM1 (11717891_a_at) / Fold change /veh ECM1 (11717891_a_at) / RFU IL23R (11748794_a_at) / Fold change /veh IL23R (11748794_a_at) / RFU TNFAIP8L3 (11732012_x_at) / Fold change /veh TNFAIP8L3 (11732012_x_at) / RFU MBOAT4 (11741988_at) / Fold change /veh MBOAT4 (11741988_at) / RFU 11764193_at / Fold change /veh 11764193_at / RFU TMEM53 (11763286_at) / Fold change /veh TMEM53 (11763286_at) / RFU MAGEB2 (11727129_at) / Fold change /veh MAGEB2 (11727129_at) / RFU TMEM200A (11744735_a_at) / Fold change /veh TMEM200A (11744735_a_at) / RFU CCDC152 (11751479_a_at) / Fold change /veh CCDC152 (11751479_a_at) / RFU FAM211A (11726209_a_at) / Fold change /veh FAM211A (11726209_a_at) / RFU RGS16 (11746705_a_at) / Fold change /veh RGS16 (11746705_a_at) / RFU VCAN (11755009_s_at) / Fold change /veh VCAN (11755009_s_at) / RFU RHOB (11743442_s_at) / Fold change /veh RHOB (11743442_s_at) / RFU RGS16 (11720943_a_at) / Fold change /veh RGS16 (11720943_a_at) / RFU RGS16 (11720944_at) / Fold change /veh RGS16 (11720944_at) / RFU, VPS4B / Fold change vs veh, VPS4B / RFU, CREB1 / Fold change vs veh, CREB1 / RFU, DNAJC13 / Fold change vs veh, DNAJC13 / RFU, GNAQ / Fold change vs veh, GNAQ / RFU, CDK5R1 / Fold change vs veh, CDK5R1 / RFU, ZRANB3 / Fold change vs veh, ZRANB3 / RFU, CUL4A / Fold change vs veh, CUL4A / RFU, CCNY / Fold change vs veh, CCNY / RFU, UFL1 / Fold change vs veh, UFL1 / RFU, COG3 / Fold change vs veh, COG3 / RFU, DIAPH2 / Fold change vs veh, DIAPH2 / RFU, SKA2 / Fold change vs veh, SKA2 / RFU, AFF3 / Fold change vs veh, AFF3 / RFU, LMF1 / Fold change vs veh, LMF1 / RFU, IPO11 / Fold change vs veh, IPO11 / RFU, DFFB / Fold change vs veh, DFFB / RFU, FOXP1 / Fold change vs veh, FOXP1 / RFU, CARD8 / Fold change vs veh, CARD8 / RFU, STRN3 / Fold change vs veh, STRN3 / RFU, ADK / Fold change vs veh, ADK / RFU, RASSF2 / Fold change vs veh, RASSF2 / RFU, WIPF1 / Fold change vs veh, WIPF1 / RFU, LARP1B / Fold change vs veh, LARP1B / RFU, RASA1 / Fold change vs veh, RASA1 / RFU, RB1 / Fold change vs veh, RB1 / RFU, PPFIA1 / Fold change vs veh, PPFIA1 / RFU, MAT2A / Fold change vs veh, MAT2A / RFU, CCT5 / Fold change vs veh, CCT5 / RFU, WDR92 / Fold change vs veh, WDR92 / RFU, CUX1 / Fold change vs veh, CUX1 / RFU, TTC7A / Fold change vs veh, TTC7A / RFU, TMEM135 / Fold change vs veh, TMEM135 / RFU, DEPTOR / Fold change vs veh, DEPTOR / RFU, CPM / Fold change vs veh, CPM / RFU, DNAJB6 / Fold change vs veh, DNAJB6 / RFU, CACNA2D3 / Fold change vs veh, CACNA2D3 / RFU, DTX4 / Fold change vs veh, DTX4 / RFU, TFCP2 / Fold change vs veh, TFCP2 / RFU, GMCL1 /// GMCL1P1 / Fold change vs veh, GMCL1 /// GMCL1P1 / RFU, AEBP2 / Fold change vs veh, AEBP2 / RFU, SNHG1 /// SNORD22 /// SNORD25 /// SNORD26 /// SNORD27 /// SNORD28 /// SNORD29 /// SNORD31 / Fold change vs veh, SNHG1 /// SNORD22 /// SNORD25 /// SNORD26 /// SNORD27 /// SNORD28 /// SNORD29 /// SNORD31 / Fold change (Aza/veh), C12orf56 (ProbeSet 11735607_a_at) / Fold change (ACY-1035/veh), C12orf56 (ProbeSet 11735607_a_at) / Fold change (Aza/veh), FGFR1OP (ProbeSet 11751329_s_at) / Fold change (ACY-1035/veh), FGFR1OP (ProbeSet 11751329_s_at) / Fold change (Aza/veh), VPS36 (ProbeSet 11739960_a_at) / Fold change (ACY-1035/veh), VPS36 (ProbeSet 11739960_a_at) / RFU SYPL1 (11715823_x_at) / Fold change /veh SYPL1 (11715823_x_at) / RFU IGFBP7 (11715501_s_at) / Fold change /veh IGFBP7 (11715501_s_at) / RFU REEP3 (11722064_at) / Fold change /veh REEP3 (11722064_at) / RFU IGLL1 (11728026_x_at) / Fold change /veh IGLL1 (11728026_x_at): dose or concentration left out as unconfirmed
Conditions: MV-4-11 cells, 48 hours

## Nc1ccc(-c2cccs2)cc1NC(=O)c1ccc2c(c1)cc(C1CC1)n2CCN1CCOCC1 [ACY-1035]
  Fold change /veh HAMP (11756126_x_at): 0.97
